{
  "source": "patent US11845803B2",
  "about": "“Combination therapies for treatment of BCMA-related cancers and autoimmune disorders” (Fred Hutchinson Cancer Center, priority 2017, dated 2023)",
  "key": {"MM cell lines": {"tested_on": "MM cell lines", "test": "Viability of MM cell lines cultured in GSI, propidium iodide staining", "type": "cell-based, human", "conditions": "1.0 μM in culture", "procedure": "(L) Viability of indicated MM-expressing cells as measured by propidium iodide staining of cell lines cultured in 1 μM GSI.\nNext, the effect of removing GSI from MM cell culture was examined. […] Finally, the viability of the tested MM cell lines was not affected by addition of 1.0 μM RO429097 to culture (FIG. 3L)."}, "primary human T cells": {"tested_on": "primary human T cells", "test": "Primary human T cell viability in GSI, trypan blue dye exclusion", "type": "cell-based", "conditions": "0.01 μM to 100 μM; 24 hours", "procedure": "(B) Primary human T cells were cultured in GSI RO4929097 at concentrations ranging from 0.01 μM to 100 μM and viability was measured by trypan blue dye exclusion after 24 hours. There was no effect of GSI, at any concentration, on T cell viability."}, "[1]": {"tested_on": "MM.1R myeloma cells in NSG mice", "test": "GSI activity in disseminated MM.1R xenograft model (surface BCMA, serum sBCMA)", "type": "in vivo, mouse", "procedure": "(A) Experimental scheme for a disseminated xenograft murine myeloma model. NSG mice were irradiated (275 rad) to facilitate tumor engraftment and received human MM tumor cells (5×10^6 MM.1R) followed by GSI treatment (30 mg/kg). […] (B) Fold change in surface BCMA expression on myeloma cells in mice euthanized at the indicated timepoints following the second GSI administration. (C) Levels of sBCMA in sera from mouse sacrificed at the indicated timepoints after administration of RO4929097. To investigate whether the sBCMA-inhibiting effects of GSI RO4929097 described in Example 4 could be replicated in vivo, a mouse xenograft model of human MM was tested as illustrated in FIG. 6A. Briefly, immunodeficient NOD/SCID gamma (NSG) mice (The Jackson Laboratory) received sublethal irradiation (275 rad) at day −1, followed by 5×10^6 MM.1R cells the next day (day 0). GSI RO4929097 (30 mg/kg) was administered by oral gavage at day 19 and day 20. Mice were sacrificed at different times after the second gavage administration of the GSI and blood and bone marrow samples were taken for analysis. GSI dosing was followed by a rapid increase (>3-fold by 4 hours post-second gavage) in surface BCMA expression on the tumor cells (FIG. 6B) and a concurrent decrease in sBCMA (FIG. 6C)."}},
  "data": [
    {"smiles": "CC(C)(C(=O)NCC(F)(F)C(F)(F)F)C(=O)N[C@@H]1C(=O)Nc2ccccc2-c2ccccc21", "note": "[RO4929097]", "values": [
      {"measurement": "viability of MM cell lines", "setting": "MM cell lines", "result": "not affected"},
      {"measurement": "T cell viability", "setting": "primary human T cells", "result": "no effect"},
      {"measurement": "time after second gavage within which observed effects were generally reduced", "setting": "[1]; 30 mg/kg oral gavage", "result": "≤ 48", "unit": "h"},
      {"measurement": "sBCMA in sera", "setting": "[1]; 30 mg/kg oral gavage day 19 and 20", "result": "decrease"},
      {"measurement": "increase in surface BCMA expression on tumor cells", "setting": "[1]; 30 mg/kg oral gavage day 19 and 20, 4 hours post-second gavage", "result": "> 3", "unit": "fold"}
    ]}
  ]
}
